Assay results reported in PubChem BioAssay AID2060502 (Molecular Pharmacology Branch, DTP, NCI, 2025).
Values belong to the molecule of their own block, whether it stands above or below them.

Test system: 885724-159-R-J1-PDC complex spheroid viability
Experiment: Anticancer human tumor 885724-159-R-J1-PDC patient-derived pancreatic adenocarcinoma cell line growth inhibition [GQUAD]
Details: for IC50: curve of first compound; for viability, T/C: stronger effect = lower value
In short: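 Tumor cells were grown as complex spheroids with HUVEC endothelial cells and mesenchymal stem cells as stroma. G-quadruplex stabilizers were combined with targeted agents over half-log dilutions from near the clinical Cmax, or from 10 microM.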

[1] = second compound 0.0316 µM, first compound 0.0316 µM
[2] = second compound 0.0316 µM, first compound 0.1 µM
[3] = second compound 0.0316 µM, first compound 0.316 µM
[4] = second compound 0.0316 µM, first compound 1 µM
[5] = second compound 0.0316 µM, first compound 3.16 µM
[6] = second compound 0.0316 µM, first compound 10 µM
[7] = second compound 0.1 µM, first compound 0.0316 µM
[8] = second compound 0.1 µM, first compound 0.1 µM
[9] = second compound 0.1 µM, first compound 0.316 µM
[10] = second compound 0.1 µM, first compound 1 µM
[11] = second compound 0.1 µM, first compound 3.16 µM
[12] = second compound 0.1 µM, first compound 10 µM
[13] = second compound 0.316 µM, first compound 0.0316 µM
[14] = second compound 0.316 µM, first compound 0.1 µM
[15] = second compound 0.316 µM, first compound 0.316 µM
[16] = second compound 0.316 µM, first compound 1 µM
[17] = second compound 0.316 µM, first compound 3.16 µM
[18] = second compound 0.316 µM, first compound 10 µM
[19] = second compound 1 µM, first compound 0.0316 µM
[20] = second compound 1 µM, first compound 0.1 µM
[21] = second compound 1 µM, first compound 0.316 µM
[22] = second compound 1 µM, first compound 1 µM
[23] = second compound 1 µM, first compound 3.16 µM
[24] = second compound 1 µM, first compound 10 µM
[25] = second compound 3.16 µM, first compound 0.0316 µM
[26] = second compound 3.16 µM, first compound 0.1 µM
[27] = second compound 3.16 µM, first compound 0.316 µM
[28] = second compound 3.16 µM, first compound 1 µM
[29] = second compound 3.16 µM, first compound 3.16 µM
[30] = second compound 3.16 µM, first compound 10 µM
[31] = second compound 10 µM, first compound 0.0316 µM
[32] = second compound 10 µM, first compound 0.1 µM
[33] = second compound 10 µM, first compound 0.316 µM
[34] = second compound 10 µM, first compound 1 µM
[35] = second compound 10 µM, first compound 3.16 µM
[36] = second compound 10 µM, first compound 10 µM
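Also: spheroids exposed to agents for seven days before readout.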
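For viability, T/C in this document: percent of vehicle control viability where 100% = DMSO wells.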

Compound: O=C(NO)c1cnc(N2CCN(S(=O)(=O)c3ccc4ccccc4c3)CC2)nc1 + CN(C)c1ccc(Nc2c3ccc(NC(=O)CCN4CCCC4)cc3nc3cc(NC(=O)CCN4CCCC4)ccc23)cc1
- IC50 (second compound 0.0316 µM): 683 nM
- IC50 (second compound 0.1 µM): 702 nM
- IC50 (second compound 0.316 µM): 579 nM
- IC50 (second compound 1 µM): 500 nM
- IC50 (second compound 3.16 µM): 519 nM
- IC50 (second compound 10 µM): 218 nM
- viability, T/C [1]: 91.8%
- viability, T/C [2]: 117%
- viability, T/C [3]: 78.7%
- viability, T/C [4]: 35.9%
- viability, T/C [5]: 0.8%
- viability, T/C [6]: 0.93%
- viability, T/C [7]: 106%
- viability, T/C [8]: 100%
- viability, T/C [9]: 86.5%
- viability, T/C [10]: 34.5%
- viability, T/C [11]: 0.82%
- viability, T/C [12]: 0.44%
- viability, T/C [13]: 83.7%
- viability, T/C [14]: 91.2%
- viability, T/C [15]: 75.6%
- viability, T/C [16]: 26.5%
- viability, T/C [17]: 1.07%
- viability, T/C [18]: 1.4%
- viability, T/C [19]: 80.4%
- viability, T/C [20]: 68.9%
- viability, T/C [21]: 64.2%
- viability, T/C [22]: 29.9%
- viability, T/C [23]: 1.26%
- viability, T/C [24]: 0.73%
- viability, T/C [25]: 71.7%
- viability, T/C [26]: 64.6%
- viability, T/C [27]: 76.8%
- viability, T/C [28]: 22%
- viability, T/C [29]: 1.42%
- viability, T/C [30]: 0.69%
- viability, T/C [31]: 61%
- viability, T/C [32]: 59%
- viability, T/C [33]: 43.7%
- viability, T/C [34]: 26.7%
- viability, T/C [35]: 1.36%
- viability, T/C [36]: 2.05%

- IC50 (second compound 0.0316 µM): > 10000 nM
- IC50 (second compound 0.1 µM): > 10000 nM
- IC50 (second compound 0.316 µM): > 10000 nM
- IC50 (second compound 1 µM): > 10000 nM
- IC50 (second compound 3.16 µM): > 10000 nM
- IC50 (second compound 10 µM): > 10000 nM
Compound: CC1COCCN1c1cc(C2(S(C)(=N)=O)CC2)nc(-c2ccnc3[nH]ccc23)n1 (centres undefined) + Cc1cnc(CNC(=O)c2c(=O)c3ccc(N4CCCN(C)CC4)nc3n3c2sc2ccccc23)cn1
- viability, T/C [1]: 101%
- viability, T/C [2]: 105%
- viability, T/C [3]: 110%
- viability, T/C [4]: 106%
- viability, T/C [5]: 81.5%
- viability, T/C [6]: 92.3%
- viability, T/C [7]: 118%
- viability, T/C [8]: 105%
- viability, T/C [9]: 116%
- viability, T/C [10]: 108%
- viability, T/C [11]: 103%
- viability, T/C [12]: 91.2%
- viability, T/C [13]: 114%
- viability, T/C [14]: 99%
- viability, T/C [15]: 98.3%
- viability, T/C [16]: 87.3%
- viability, T/C [17]: 86%
- viability, T/C [18]: 86.7%
- viability, T/C [19]: 93.5%
- viability, T/C [20]: 78.5%
- viability, T/C [21]: 81.6%
- viability, T/C [22]: 87.2%
- viability, T/C [23]: 90.7%
- viability, T/C [24]: 67.1%
- viability, T/C [25]: 82%
- viability, T/C [26]: 80.4%
- viability, T/C [27]: 70.5%
- viability, T/C [28]: 79.8%
- viability, T/C [29]: 83%
- viability, T/C [30]: 60.2%
- viability, T/C [31]: 72.8%
- viability, T/C [32]: 73.4%
- viability, T/C [33]: 72.6%
- viability, T/C [34]: 72.1%
- viability, T/C [35]: 78%
- viability, T/C [36]: 59.5%
